# Measured values from patent US20060173080A1, “Methods of modulating TNF using bupropion” (The Regents of the University of California, priority 2002, published 2006).
# Counter-ions that a name gives are not always drawn.
# Experiments:
# TNF-alpha = test: TNF level in patients with congestive heart failure before and on bupropion; type: in vivo, human; conditions: for TNF: NYSHA Class I CHF
# Experimental: A person with NYSHA Class I CHF who started on bupropion for major depression. Their TNF before bupropion was 347 pg/ml and 5 pg/ml after two months on bupropion 150 mg twice a day (BID). […] In addition, a person with a history of two myocardial infarctions and NYSHA Class II CHF, who started on bupropion for major depression and desire to stop a 1.5 container/day chewing tobacco habit. Their TNF before starting bupropion was 433 pg/ml, and […] and then four weeks on bupropion 150 mg three times a day (TID). They subsequently stopped using tobacco and their depression is in remission. Finally, a person with NYSHA Class I CHF-TNF was 303 pg/ml before bupropion was started for depression and 7 pg/ml on 150 mg TID.
# IL-1beta = test: Serum IL-1beta by ELISA in LPS-challenged mice; type: in vivo, BALB/c mice; conditions: bupropion 100 mg/kg i.p. 1 h before 600 μg LPS i.p., serum 90 min after LPS
# Experimental: (§1) To study the immunomodulatory effects of bupropion we used a mouse model in which TNF production is induced by stimulation with lipopolysaccharide (LPS) (Bozza et al, The PACAP-type I receptor agonist maxadilan from sand fly saliva protects mice against lethal endotoxemia by a mechanism partially dependent on IL-10, Eur. J. Immunol. 28, 3120-3127, 1998). BALB/c mice were injected intraperitoneally (i.p.) with bupropion or placebo 1 h prior to i.p. injection of LPS (600 ug/mouse).
# (§2) Male, 6 weeks old BALB/c mice were used in LPS-induced shock experiments. All mice were raised and maintained at the animal facilities at the Goncalo Moniz Research Center-FIOCRUZ, and provided with rodent diet and water ad libitum. Animal numbers in experimental groups were the minimum necessary to permit statistical analysis. All animals were sacrificed under anaesthesia. […]
# (§3) TNF, IL-1beta, IFN-gamma and IL-10 concentrations in serum samples or in supernatants from macrophage cultures were determined by enzyme-linked immunosorbent assay (ELISA) using antibody pairs and recombinant cytokines from R&D systems (Minneapolis, Minn., USA), according to the manufacturer's instructions. After incubation with streptoavidin-peroxidase conjugate (Sigma), the reaction was developed using 3,3′, 5,5′-tetramethylbenzidine (TMB) peroxidase substrate and read at 450 nm. The serum concentration of nitrite (NO2−) was determined by the Griess reaction, as an indicator of nitric oxide production (Green et al., Analysis of nitrate nitrite and [^15N] nitrite in biological fluids. Anal. Biochem 126, 131-138, 1982). […] The absorbance of the reaction product at 540 nm was measured using an ELISA reader. The NO2^− concentration was determined by using sodium nitrite as standard. Data were analyzed using Student's t test, one-way ANOVA or Newman-Keuls multiple comparison test, using Graph Pad Prism 3.0 software. […]
# β-adrenergic receptor = conditions: Garrcha et al. 1985; cited from earlier work
# IFN-gamma = test: Serum IFN-gamma by ELISA in LPS-challenged mice; type: in vivo, BALB/c mice; conditions: bupropion 100 mg/kg i.p. 1 h before 600 μg LPS i.p., serum 4 h after LPS
# Experimental: as §1, §2, §3
# [1] = listed as bupropion hydrochloride
# [2] = listed as Bupropion, hydrochloride
compound,measurement,setting,value
"CC(NC(C)(C)C)C(=O)c1cccc(Cl)c1 (racemic) [bupropion, (.±.)-1-(3-chlorophenyl)-2-[(1,1-dimethylethyl)amino]-1-propanone hydrochloride]",maintenance of low TNF,TNF-alpha; person two on bupropion,maintained for more than a year
same,TNF,"TNF-alpha; person two, on bupropion 150 mg TID, 303 pg/ml before",7 pg/mL
same,TNF,"TNF-alpha; person, after two months on bupropion 150 mg BID, 347 pg/ml before",5 pg/mL
same,change of TNF-alpha on bupropion,TNF-alpha; three patients with CHF,dropped profoundly
same,serum IL-1beta level compared with placebo,IL-1beta; [1],decrease
same,serum IL-1beta level compared with placebo,IL-1beta; hydrochloride,significantly reduced
same,serum IL-1beta level compared with placebo,IL-1beta; [2],significantly decreased
same,compensatory β-adrenergic receptor down-regulation,β-adrenergic receptor,does not cause
same,serum IFN-gamma level compared with placebo,IFN-gamma; [1],decrease
same,serum IFN-gamma level compared with placebo,IFN-gamma; hydrochloride,significantly reduced
same,serum IFN-gamma level compared with placebo,IFN-gamma; [2],significantly decreased
